# Assay results from paper PMC7717600, “Novel [(N-alkyl-3-indolylmethylene)hydrazono]oxindoles arrest cell cycle and induce cell apoptosis by inhibiting CDK2 and Bcl-2: synthesis, biological evaluation and in silico studies” (Journal of Enzyme Inhibition and Medicinal Chemistry, 2020).
# How the values were obtained:
# NCI-H460 = test: NCI SRB screening; type: cell-based, human; conditions: NCI-H460, 10 μM
# COLO 205 = test: NCI SRB screening; type: cell-based, human; conditions: COLO 205, 10 μM
# HCC-2998 = test: NCI SRB screening; type: cell-based, human; conditions: HCC-2998, 10 μM
# LOX IMVI = test: NCI SRB screening; type: cell-based, human; conditions: 10 μM
# M14 = test: NCI SRB screening; type: cell-based; conditions: M14, 10 μM
# MDA-MB-435 = test: NCI SRB screening; type: cell-based; conditions: MDA-MB-435, 10 μM
# PC-3 = test: NCI SRB screening; type: cell-based, human; conditions: PC-3, 10 μM
# CCRF-CEM = conditions: 10 μM
# HL-60(TB) = conditions: HL-60(TB), 10 μM
# K-562 = conditions: K-562, 10 μM
# MOLT-4 = conditions: MOLT-4, 10 μM
# RPMI-8226 = conditions: RPMI-8226, 10 μM
# SR = conditions: 10 μM
# A549/ATCC = conditions: 10 μM
# EKVX = conditions: 10 μM
# HOP-62 = conditions: HOP-62, 10 μM
# NCI-H226 = conditions: NCI-H226, 10 μM
# NCI-H23 = conditions: NCI-H23, 10 μM
# NCI-H522 = conditions: NCI-H522, 10 μM
# HCT-116 = conditions: HCT-116, 10 μM
# SW-620 = conditions: SW-620, 10 μM
# SF-268 = conditions: SF-268, 10 μM
# SF-295 = conditions: SF-295, 10 μM
# SNB-19 = conditions: SNB-19, 10 μM
# SNB-75 = conditions: SNB-75, 10 μM
# U251 = conditions: U251, 10 μM
# MALME-3M = conditions: 10 μM
# SK-MEL-2 = conditions: SK-MEL-2, 10 μM
# SK-MEL-28 = conditions: SK-MEL-28, 10 μM
# UACC-62 = conditions: UACC-62, 10 μM
# IGROV1 = conditions: IGROV1, 10 μM
# OVCAR-3 = conditions: OVCAR-3, 10 μM
# OVCAR-4 = conditions: OVCAR-4, 10 μM
# OVCAR-5 = conditions: OVCAR-5, 10 μM
# OVCAR-8 = conditions: OVCAR-8, 10 μM
# NCI/ADR-RES = conditions: 10 μM
# SK-OV-3 = conditions: SK-OV-3, 10 μM
# 786-0 = conditions: 786-0, 10 μM
# ACHN = conditions: 10 μM
# RXF 393 = conditions: RXF 393, 10 μM
# SN12C = conditions: 10 μM
# TK-10 = conditions: TK-10, 10 μM
# DU-145 = conditions: DU-145, 10 μM
# MCF7 = conditions: MCF7, 10 μM
# HS 578T = conditions: 10 μM
# BT-549 = conditions: BT-549, 10 μM
# MDA-MB-468 = conditions: MDA-MB-468, 10 μM
# NCI-H322M = test: NCI SRB screening; conditions: 10 μM
compound,measurement,setting,value
C=CCn1cc(C=NN=C2C(=O)Nc3ccccc32)c2ccccc21 [Compound 10a],GI %,NCI-H460,– (Only GI % higher than 10% are shown)
same,GI %,COLO 205,30%
same,GI %,HCC-2998,– (Only GI % higher than 10% are shown)
same,GI %,LOX IMVI,– (Only GI % higher than 10% are shown)
same,GI %,M14,12%
same,GI %,MDA-MB-435,– (Only GI % higher than 10% are shown)
same,GI %,PC-3,22%
same,GI %,CCRF-CEM,– (Only GI % higher than 10% are shown)
same,GI %,HL-60(TB),22%
same,GI %,K-562,30%
same,GI %,MOLT-4,35%
same,GI %,RPMI-8226,13%
same,GI %,SR,50%
same,GI %,A549/ATCC,– (Only GI % higher than 10% are shown)
same,GI %,EKVX,– (Only GI % higher than 10% are shown)
same,GI %,HOP-62,– (Only GI % higher than 10% are shown)
same,GI %,NCI-H226,13%
same,GI %,NCI-H23,12%
same,GI %,NCI-H522,31%
same,GI %,HCT-116,24%
same,GI %,SW-620,– (Only GI % higher than 10% are shown)
same,GI %,SF-268,– (Only GI % higher than 10% are shown)
same,GI %,SF-295,– (Only GI % higher than 10% are shown)
same,GI %,SNB-19,– (Only GI % higher than 10% are shown)
same,GI %,SNB-75,18%
same,GI %,U251,10%
same,GI %,MALME-3M,26%
same,GI %,SK-MEL-2,– (Only GI % higher than 10% are shown)
same,GI %,SK-MEL-28,– (Only GI % higher than 10% are shown)
same,GI %,UACC-62,25%
same,GI %,IGROV1,28%
same,GI %,OVCAR-3,21%
same,GI %,OVCAR-4,27%
same,GI %,OVCAR-5,– (Only GI % higher than 10% are shown)
same,GI %,OVCAR-8,15%
same,GI %,NCI/ADR-RES,– (Only GI % higher than 10% are shown)
same,GI %,SK-OV-3,– (Only GI % higher than 10% are shown)
same,GI %,786-0,– (Only GI % higher than 10% are shown)
same,GI %,ACHN,– (Only GI % higher than 10% are shown)
same,GI %,RXF 393,11%
same,GI %,SN12C,– (Only GI % higher than 10% are shown)
same,GI %,TK-10,– (Only GI % higher than 10% are shown)
same,GI %,DU-145,– (Only GI % higher than 10% are shown)
same,GI %,MCF7,33%
same,GI %,HS 578T,– (Only GI % higher than 10% are shown)
same,GI %,BT-549,– (Only GI % higher than 10% are shown)
same,GI %,MDA-MB-468,20%
same,GI %,NCI-H322M,– (Only GI % higher than 10% are shown)
C=CCn1cc(C=NN=C2C(=O)Nc3c(F)cccc32)c2ccccc21 [Compound 10c],GI %,NCI-H460,– (Only GI % higher than 10% are shown)
same,GI %,COLO 205,– (Only GI % higher than 10% are shown)
same,GI %,HCC-2998,– (Only GI % higher than 10% are shown)
same,GI %,LOX IMVI,– (Only GI % higher than 10% are shown)
same,GI %,M14,– (Only GI % higher than 10% are shown)
same,GI %,MDA-MB-435,– (Only GI % higher than 10% are shown)
same,GI %,PC-3,10%
same,GI %,CCRF-CEM,17%
same,GI %,HL-60(TB),– (Only GI % higher than 10% are shown)
same,GI %,K-562,20%
same,GI %,MOLT-4,19%
same,GI %,RPMI-8226,– (Only GI % higher than 10% are shown)
same,GI %,SR,58%
same,GI %,A549/ATCC,– (Only GI % higher than 10% are shown)
same,GI %,EKVX,15%
same,GI %,HOP-62,– (Only GI % higher than 10% are shown)
same,GI %,NCI-H226,56%
same,GI %,NCI-H23,– (Only GI % higher than 10% are shown)
same,GI %,NCI-H522,34%
same,GI %,HCT-116,28%
same,GI %,SW-620,– (Only GI % higher than 10% are shown)
same,GI %,SF-268,– (Only GI % higher than 10% are shown)
same,GI %,SF-295,– (Only GI % higher than 10% are shown)
same,GI %,SNB-19,– (Only GI % higher than 10% are shown)
same,GI %,SNB-75,– (Only GI % higher than 10% are shown)
same,GI %,U251,– (Only GI % higher than 10% are shown)
same,GI %,MALME-3M,– (Only GI % higher than 10% are shown)
same,GI %,SK-MEL-2,– (Only GI % higher than 10% are shown)
same,GI %,SK-MEL-28,– (Only GI % higher than 10% are shown)
same,GI %,UACC-62,15%
same,GI %,IGROV1,31%
same,GI %,OVCAR-3,13%
same,GI %,OVCAR-4,22%
same,GI %,OVCAR-5,– (Only GI % higher than 10% are shown)
same,GI %,OVCAR-8,11%
same,GI %,NCI/ADR-RES,– (Only GI % higher than 10% are shown)
same,GI %,SK-OV-3,– (Only GI % higher than 10% are shown)
same,GI %,786-0,– (Only GI % higher than 10% are shown)
same,GI %,ACHN,11%
same,GI %,RXF 393,– (Only GI % higher than 10% are shown)
same,GI %,SN12C,– (Only GI % higher than 10% are shown)
same,GI %,TK-10,– (Only GI % higher than 10% are shown)
same,GI %,DU-145,– (Only GI % higher than 10% are shown)
same,GI %,MCF7,31%
same,GI %,HS 578T,– (Only GI % higher than 10% are shown)
same,GI %,BT-549,– (Only GI % higher than 10% are shown)
same,GI %,MDA-MB-468,54%
same,GI %,NCI-H322M,– (Only GI % higher than 10% are shown)
